These results are taken from BindingDB's records for doi:10.1021/ja0296733 (Abbott Laboratories, 2003).

The target in test [1] is T1, Tyrosine-protein phosphatase non-receptor type 2 (Homo sapiens, UniProt P17706).
T1 sequence (P17706 whole entry): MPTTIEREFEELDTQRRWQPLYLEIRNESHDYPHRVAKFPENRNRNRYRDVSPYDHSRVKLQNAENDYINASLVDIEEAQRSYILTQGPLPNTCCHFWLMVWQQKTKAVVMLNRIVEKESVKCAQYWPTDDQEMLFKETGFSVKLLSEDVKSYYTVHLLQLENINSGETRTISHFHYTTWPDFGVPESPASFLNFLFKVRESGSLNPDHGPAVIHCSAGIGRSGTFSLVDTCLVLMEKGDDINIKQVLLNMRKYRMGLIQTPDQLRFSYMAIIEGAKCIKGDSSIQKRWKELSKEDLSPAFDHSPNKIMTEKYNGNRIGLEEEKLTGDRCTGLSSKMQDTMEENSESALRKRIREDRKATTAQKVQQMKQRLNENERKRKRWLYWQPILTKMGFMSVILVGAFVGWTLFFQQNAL
Nature of the test: PTP1B and TCPTP Inhibition Assay. Conditions: pH 7.5; 22 °C.
Method: (§1) For each concentration of test compound or DMSO control, the initial rates were used to fit the rectangular hyperbola of Michaelis-Menten by nonlinear regression analysis. The ratio of the apparent Km/Vmax vs inhibitor concentration was plotted, and the Ki was calculated by linear regression to be the negative X-intercept.

Test [2] deals with T2, Tyrosine-protein phosphatase non-receptor type 1 [1-298] (Homo sapiens, UniProt P18031).
T2 construct: 1-298
T2 sequence (P18031 whole entry): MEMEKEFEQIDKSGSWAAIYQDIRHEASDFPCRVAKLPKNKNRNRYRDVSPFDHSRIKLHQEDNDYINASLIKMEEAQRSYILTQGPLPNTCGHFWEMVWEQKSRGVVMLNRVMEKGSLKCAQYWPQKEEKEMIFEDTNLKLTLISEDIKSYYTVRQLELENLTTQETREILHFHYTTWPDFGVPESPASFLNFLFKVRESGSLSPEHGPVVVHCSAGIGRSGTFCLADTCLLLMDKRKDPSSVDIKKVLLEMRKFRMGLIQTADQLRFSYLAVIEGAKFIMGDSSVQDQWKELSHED
Nature of the test: PTP1B and TCPTP Inhibition Assay. The following applies: pH 7.5; 22 °C.
Method: as §1

Turning to `O=C(O)C(=O)N(c1ccccc1C(=O)O)c1cccc2ccccc12` [2-(Naphthalen-1-yloxalylamino)benzoic Acid], in test [1], the Ki is 44 µM. As to `Cc1cccc(N(C(=O)C(=O)O)c2ccccc2C(=O)O)c1C`, the Ki in test [1] is 164 µM; in test [2], 293 µM.

For the compound `CC(=O)N[C@@H](Cc1ccc(N(C(=O)C(=O)O)c2ccccc2C(=O)O)c2ccccc12)C(=O)NCCCCCOc1cc2ccccc2cc1C(=O)O` [3-({5-[(N-Acetyl-3-{4-[(carboxycarbonyl)(2-carboxyphenyl)amino]-1-naphthyl}-L-alanyl)amino]pentyl}oxy)-2-naphthoic Acid], in test [1], affinity was put at a Ki of 0.049 µM.
